In PMC3930694, “Small Molecule Inhibitors Target the Tissue Transglutaminase and Fibronectin Interaction” (PLoS ONE, 2014) one finds Ki data, which are given here for 1 compound.

This assay deals with T1, Tissue transglutaminase (TG2) (Homo sapiens, UniProt P21980).
T1 construct: gene TGM2; Full length TG2, His6-tagged, expressed in E. coli
As to the kind of experiment: competition ELISA with purified His6-TG2 and biotinylated FN42 (FN42 saturation curves, Lineweaver-Burk); AlphaLISA. The format is binding. (In general: In an ELISA, binding on a coated surface is turned into a signal by an enzyme label.)

T1 sequence (P21980 whole entry): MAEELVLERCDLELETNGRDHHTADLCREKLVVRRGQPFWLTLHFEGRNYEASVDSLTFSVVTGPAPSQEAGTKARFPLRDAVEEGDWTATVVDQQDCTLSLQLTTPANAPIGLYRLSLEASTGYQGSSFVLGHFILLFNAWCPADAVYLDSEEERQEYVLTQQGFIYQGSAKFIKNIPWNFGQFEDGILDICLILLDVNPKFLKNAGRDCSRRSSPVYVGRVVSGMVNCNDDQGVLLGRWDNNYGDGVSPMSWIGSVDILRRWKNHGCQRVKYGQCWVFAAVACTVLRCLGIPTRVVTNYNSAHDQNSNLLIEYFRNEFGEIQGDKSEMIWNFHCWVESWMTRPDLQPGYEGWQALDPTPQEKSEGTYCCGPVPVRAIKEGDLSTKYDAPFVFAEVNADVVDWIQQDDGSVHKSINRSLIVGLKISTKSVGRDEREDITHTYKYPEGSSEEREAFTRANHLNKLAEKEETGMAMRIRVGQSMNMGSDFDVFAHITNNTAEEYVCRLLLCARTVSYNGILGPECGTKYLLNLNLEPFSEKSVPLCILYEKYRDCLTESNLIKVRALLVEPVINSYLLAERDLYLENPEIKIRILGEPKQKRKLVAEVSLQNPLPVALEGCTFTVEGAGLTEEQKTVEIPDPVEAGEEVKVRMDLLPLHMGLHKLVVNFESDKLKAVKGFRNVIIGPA
T1 sequence (P02751 32-2477 partner): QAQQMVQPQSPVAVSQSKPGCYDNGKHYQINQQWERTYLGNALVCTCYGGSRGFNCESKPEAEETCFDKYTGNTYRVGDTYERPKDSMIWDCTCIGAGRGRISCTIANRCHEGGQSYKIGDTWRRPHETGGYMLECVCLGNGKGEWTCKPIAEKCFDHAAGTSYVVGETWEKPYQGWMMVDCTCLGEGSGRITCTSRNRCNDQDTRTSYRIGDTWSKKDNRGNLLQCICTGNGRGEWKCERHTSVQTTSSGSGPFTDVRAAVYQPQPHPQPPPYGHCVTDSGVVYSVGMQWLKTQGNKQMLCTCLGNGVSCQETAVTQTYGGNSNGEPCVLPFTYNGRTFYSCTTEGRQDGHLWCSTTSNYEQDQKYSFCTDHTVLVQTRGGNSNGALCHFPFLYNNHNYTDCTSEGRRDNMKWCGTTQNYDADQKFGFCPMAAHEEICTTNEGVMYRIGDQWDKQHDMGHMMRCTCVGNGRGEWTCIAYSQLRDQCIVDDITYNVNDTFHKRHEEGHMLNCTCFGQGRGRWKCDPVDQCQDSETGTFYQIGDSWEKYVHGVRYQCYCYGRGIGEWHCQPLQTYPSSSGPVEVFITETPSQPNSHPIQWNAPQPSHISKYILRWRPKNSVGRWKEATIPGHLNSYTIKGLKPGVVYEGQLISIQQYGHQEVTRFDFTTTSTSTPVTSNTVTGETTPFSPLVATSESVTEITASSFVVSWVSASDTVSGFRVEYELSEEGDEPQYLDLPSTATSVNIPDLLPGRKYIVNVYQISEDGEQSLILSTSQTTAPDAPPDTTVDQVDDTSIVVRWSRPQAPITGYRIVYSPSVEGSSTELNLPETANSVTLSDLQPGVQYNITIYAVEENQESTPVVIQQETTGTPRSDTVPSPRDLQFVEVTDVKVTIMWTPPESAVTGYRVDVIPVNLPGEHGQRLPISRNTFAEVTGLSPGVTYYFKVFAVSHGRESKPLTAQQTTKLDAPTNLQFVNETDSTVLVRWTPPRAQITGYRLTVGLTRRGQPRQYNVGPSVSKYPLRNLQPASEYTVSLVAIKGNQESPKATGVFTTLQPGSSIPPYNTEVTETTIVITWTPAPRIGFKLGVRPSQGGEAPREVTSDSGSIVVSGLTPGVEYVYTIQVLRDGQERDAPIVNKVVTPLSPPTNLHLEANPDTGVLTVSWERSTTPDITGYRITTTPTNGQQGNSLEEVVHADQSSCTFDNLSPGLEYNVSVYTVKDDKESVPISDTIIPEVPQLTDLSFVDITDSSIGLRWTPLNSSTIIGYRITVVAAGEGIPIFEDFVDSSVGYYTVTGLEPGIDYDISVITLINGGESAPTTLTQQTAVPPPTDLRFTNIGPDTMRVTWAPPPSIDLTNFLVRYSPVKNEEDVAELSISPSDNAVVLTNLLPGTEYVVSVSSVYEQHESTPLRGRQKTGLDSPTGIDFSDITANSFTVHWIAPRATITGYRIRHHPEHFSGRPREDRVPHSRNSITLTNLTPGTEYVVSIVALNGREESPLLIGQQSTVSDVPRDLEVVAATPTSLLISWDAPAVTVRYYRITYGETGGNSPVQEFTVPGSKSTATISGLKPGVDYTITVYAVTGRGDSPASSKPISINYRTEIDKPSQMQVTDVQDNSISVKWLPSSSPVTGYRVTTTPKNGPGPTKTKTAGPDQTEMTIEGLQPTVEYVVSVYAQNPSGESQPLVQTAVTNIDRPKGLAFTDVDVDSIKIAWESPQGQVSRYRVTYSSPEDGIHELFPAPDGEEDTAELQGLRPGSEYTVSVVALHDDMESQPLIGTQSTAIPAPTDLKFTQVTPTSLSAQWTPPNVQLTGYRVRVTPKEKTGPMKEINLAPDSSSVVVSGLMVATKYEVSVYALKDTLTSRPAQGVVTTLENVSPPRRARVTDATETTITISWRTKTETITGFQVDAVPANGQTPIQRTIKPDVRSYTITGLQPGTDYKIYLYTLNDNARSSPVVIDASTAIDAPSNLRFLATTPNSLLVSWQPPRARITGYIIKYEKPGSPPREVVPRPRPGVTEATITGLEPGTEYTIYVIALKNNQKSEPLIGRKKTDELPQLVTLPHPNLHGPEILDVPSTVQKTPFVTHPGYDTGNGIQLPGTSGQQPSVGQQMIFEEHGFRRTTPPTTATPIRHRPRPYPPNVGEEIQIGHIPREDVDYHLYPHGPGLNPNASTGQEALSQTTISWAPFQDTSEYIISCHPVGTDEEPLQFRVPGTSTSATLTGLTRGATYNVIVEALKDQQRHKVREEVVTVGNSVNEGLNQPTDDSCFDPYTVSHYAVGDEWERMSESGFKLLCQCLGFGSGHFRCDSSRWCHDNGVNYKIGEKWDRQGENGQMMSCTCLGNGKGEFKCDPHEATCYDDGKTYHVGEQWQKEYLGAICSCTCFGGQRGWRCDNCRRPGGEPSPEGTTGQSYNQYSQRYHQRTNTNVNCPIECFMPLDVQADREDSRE

Turning to `COc1ccc(Cl)cc1C(=O)Nc1ccc(Nc2nc(C)cc(N(C)C)n2)cc1` [TG53], the Ki (in general, the dissociation constant of the complex between target and ligand, obtained from inhibition or displacement) was 4.15 µM.
